Laboratory results reported in US8889671B2, “Compounds and methods for treating bacterial infections” (AstraZeneca AB, priority 2013, dated 2014).
Values after ≈ are worked out from the molar mass of the structure shown. Values joined by “and” are separate entries in the source; they are usually repeats but may differ in a detail not shown here. Equal values may be shown once. Read-outs that look alike come from different tables or passages of the source.

Tests used:
[1] = tested on: Escherichia coli; test: Susceptibility testing (MIC) Assay 2, broth microdilution; format: cell-based; conditions: K12, read-out: Eco MIC
[2] = tested on: Haemophilus influenzae; test: as above; format: cell-based; conditions: ATCC51907, Haemophilus influenzae, ATCC 51907, in vivo strain, read-out: Hin MIC
[3] = tested on: Klebsiella pneumoniae; test: as above; format: cell-based; conditions: clinical isolate, mucoid, read-out: Kpn MIC
[4] = tested on: Pseudomonas aeruginosa; test: as above; format: cell-based; conditions: PAO1, read-out: Pae MIC
[5] = tested on: Citrobacter freundii; test: In vitro antibacterial activity of Example 5 (MIC); format: cell-based
[6] = tested on: Enterobacter cloacae; test: In vitro antibacterial activity of Example 5 (MIC); format: cell-based
[7] = tested on: Escherichia coli; test: In vitro antibacterial activity of Example 5 (MIC); format: cell-based
[8] = tested on: Klebsiella oxytoca; test: In vitro antibacterial activity of Example 5 (MIC); format: cell-based
[9] = tested on: Pseudomonas aeruginosa; test: In vitro antibacterial activity of Example 5 (MIC); format: cell-based
[10] = tested on: Staphylococcus aureus; test: In vitro antibacterial activity of Example 5 (MIC); format: cell-based
[11] = tested on: Staphylococcus lugdunensis; test: In vitro antibacterial activity of Example 5 (MIC); format: cell-based
[12] = tested on: Streptococcus agalactiae; test: In vitro antibacterial activity of Example 5 (MIC); format: cell-based
[13] = tested on: Bacteroides thetaiotaomicron; test: In vitro antibacterial activity of Example 5 against anaerobes (MIC, agar dilution); format: cell-based
[14] = tested on: Bacillus subtilis; test: In vitro antibacterial activity of Example 5 (MIC); format: cell-based; conditions: 11 strains of Bacillus subtilis
[15] = tested on: B. anthracis; test: microbe, parasite or virus in culture; format: cell-based, Bacillus anthracis
[16] = tested on: Legionella pneumophila; test: microbe, parasite or virus in culture; format: cell-based
[17] = tested on: Neisseria gonorrhoeae; test: In vitro antibacterial activity of Example 5 (MIC, agar dilution); format: cell-based; conditions: 17 strains of Neisseria gonorrhoeae
[18] = tested on: Staphylococcus aureus; test: Emergence of resistance with serial passage; format: cell-based; conditions: after twenty passages with Example 5, S. aureus isolates (516 and 2398)
[19] = tested on: S. pyogenes ARC838; test: Emergence of resistance with serial passage; format: cell-based, Streptococcus pyogenes; conditions: after twenty passages with Example 5, S. pyogenes ARC838
[20] = tested on: Staphylococcus aureus, Streptococcus pneumoniae, and S. pyogenes strains with characterized gyrase and topoisomerase mutations; format: cell-based; conditions: clinical isolates with mutations in gyrA, gyrB, ParC or ParE
[21] = tested on: Streptococcus pyogenes ATCC12384; test: S. pyogenes neutropenic mouse thigh infection model, PK/PD
[22] = S. pyogenes ATCC12384, neutropenic mouse thigh

In the case of C[C@@H]1CN2c3c(cc4c(N5C(=O)OC[C@@H]5C)noc4c3F)CC3(C(=O)NC(=O)NC3=O)[C@H]2[C@H](C)O1 [Example 5, (2R,4S,4aS)-11-Fluoro-2,4-dimethyl-8-[(4S)-4-methyl-2-oxo-1,3-oxazolidin-3-yl]-1,2,4,4a-tetrahydro-2′H,6H-spiro[1,4-oxazino[4,3-a][1,2]oxazolo[4,5-g]quinoline-5,5′-pyrimidine]-2′,4′,6′(1′H,3′H)-trione], the MIC [1] is reported as 4 µM (≈ 1.95 µg/mL), the MIC [2] is reported as 0.33 µM (≈ 0.161 µg/mL) and the MIC [3] is reported as > 200 µM. For the same molecule, the MIC [4] was > 200 µM, the MIC [5] was 16 µg/mL (≈ 32.8 µM) and the MIC ([6]; Enterobacter cloacae (Chromosomal AmpC)) was 32 µg/mL (≈ 65.6 µM). For the same molecule, the MIC ([6]; Enterobacter cloacae, read-out: MIC) was 32 µg/mL (≈ 65.6 µM), the MIC ([7]; ATCC25922, Escherichia coli (ATCC 25922 CLSI QC Strain)) was 2 µg/mL (≈ 4.1 µM) and the MIC ([7]; ATCC25922, Escherichia coli (TolC- of ATCC 25922)) was < 0.06 µg/mL. The MIC ([7]; ATCC25922, Escherichia coli + 2%Human albumin (ATCC 25922)) was < 0.06 µg/mL, the MIC ([7]; ATCC35218, Escherichia coli (ATCC 35218 CLSI QC Strain)) was 4 µg/mL (≈ 8.21 µM) and the MIC ([7]; Escherichia coli (K12(W3110))) was 2 µg/mL (≈ 4.1 µM). The MIC [8] was 32 µg/mL (≈ 65.6 µM), the MIC ([9]; PAO1, Pseudomonas aeruginosa (PAO1)) was > 64 µg/mL and the MIC ([9]; PAO1, Pseudomonas aeruginosa (PAO1, mexABCDXY-)) was 2 µg/mL (≈ 4.1 µM). The MIC ([9]; Pseudomonas aeruginosa (clinical isolate)) was > 64 µg/mL, the MIC90 ([10]; 100 strains of S. aureus) was 0.25 µg/mL (≈ 0.513 µM) and the MIC ([10]; ATCC29213, Staphylococcus aureus (ATCC 29213, CLSI QC Strain)) was 0.125 µg/mL (≈ 0.256 µM). For the same molecule, the MIC ([10]; ATCC29213, Staphylococcus aureus + 2%Human albumin (ATCC 29213, CLSI QC Strain)) was 0.25 µg/mL, the MIC ([10]; MRSA / USA100, Staphylococcus aureus (MRSA, USA100)) was 0.125 µg/mL (≈ 0.256 µM) and the MIC ([10]; MRSA, Staphylococcus aureus (MRSA)) was 0.5 µg/mL (≈ 1.03 µM). For the same molecule, the MIC ([10]; MRSA, Staphylococcus aureus (MRSA, fluoroquinolone-R)) was 0.25 µg/mL (≈ 0.513 µM), the MIC ([10]; MSSA, Staphylococcus aureus (MSSA, in vivo strain)) was 0.125 µg/mL (≈ 0.256 µM) and the MIC ([10]; Staphylococcus aureus (In vivo Strain)) was 0.25 µg/mL (≈ 0.513 µM). The MIC ([10]; VISA, Staphylococcus aureus (Mu3, VISA)) was 0.25 µg/mL (≈ 0.513 µM), the MIC [11] was 1 µg/mL (≈ 2.05 µM) and the MIC90 ([11]; S. lugdunensis, n=11) was 0.5 µg/mL (≈ 1.03 µM). It also gave an MIC [12] of 0.5 µg/mL (≈ 1.03 µM), an MIC90 ([12]; 100 strains of S. Agalactiae) of 0.25 µg/mL (≈ 0.513 µM) and an MIC50 ([12]; 100 strains of S. Agalactiae, read-out: MIC50 (MICH [sic])) of 0.125 µg/mL (≈ 0.256 µM). The MIC ([13]; ATCC29741, Bacteroides thetaiotaomicron (ATCC 29741, CLSI QC Strain)) was 8 µg/mL (≈ 16.4 µM), the MIC ([13]; Bacteroides thetaiotaomicron) was 8 µg/mL (≈ 16.4 µM) and the MIC90 [14] was 0.5 µg/mL (≈ 1.03 µM). For the same molecule, the MIC range ([15]; B. anthracis, BSL3 testing) was 0.125 to 1 µg/mL, the MIC90 ([15]; Bacillus anthracis) was 0.5 µg/mL (≈ 1.03 µM) and the MIC90 [16] was 0.06 µg/mL (≈ 0.123 µM). For the same molecule, the MIC range ([16]; n=11) was 0.008 to 0.06 µg/mL, the MIC90 [17] was 0.125 µg/mL (≈ 0.256 µM) and the MIC range [17] was 0.03 to 0.25 µg/mL. For the same molecule, the “decrease in susceptibility over the starting culture” value [18] was 32 fold and 16 fold, the “decrease in susceptibility over the starting culture” value [19] was 8 fold and the cross resistance [20] was “No cross resistance”. For the same molecule, the efficacy in vivo ([21]; S. pyogenes ATC12384 in neutropenic mice) was “dose-dependent efficacy”, the “AUC value for 1-log reduction” value [21, 22] was 76 μg·h/mL and the “AUC value for 2-log reduction” value [21, 22] was 95 μg·h/mL. For the same molecule, the “AUC value for stasis” value [21, 22] was 60 µg·h/mL and the “AUC/MIC (free), EC50 ± SEM (% CV)” value ([21]; S. pyogenes neutropenic dose response) was 151 ± 7 (5%).
